Where “and” joins values, the source holds several entries; their conditions need not be identical. Equal values may be shown once. ± gives the uncertainty stated by the source.
Assay: xn = mol fraction of the nth substance listed

CN(C)CCO + O
viscosity (293.15 K, 101 kPa, x1 = 0.08): 4.245 ± 0.025 mPa·s
viscosity (293.15 K, 101.3 kPa, x1 = 0.1001): 6.55 ± 0.06 mPa·s
viscosity (293.15 K, 101.3 kPa, x1 = 0.1999): 10.56 ± 0.09 mPa·s
viscosity (293.15 K, 101.3 kPa, x1 = 0.3): 13.17 ± 0.11 mPa·s
viscosity (293.15 K, 101.3 kPa, x1 = 0.4): 14.4 ± 0.12 mPa·s
viscosity (293.15 K, 101.3 kPa, x1 = 0.5): 14.13 ± 0.12 mPa·s
viscosity (293.15 K, 101.3 kPa, x1 = 0.6001): 12.81 ± 0.11 mPa·s
viscosity (293.15 K, 101.3 kPa, x1 = 0.6998): 10.51 ± 0.09 mPa·s
viscosity (293.15 K, 101.3 kPa, x1 = 0.8): 7.76 ± 0.07 mPa·s
viscosity (293.15 K, 101.3 kPa, x1 = 0.9001): 5.2 ± 0.05 mPa·s
viscosity (298.15 K, 101 kPa, x1 = 0.08): 3.487 ± 0.023 mPa·s
viscosity (303.15 K, 101 kPa, x1 = 0.03444): 1.45 ± 0.06 mPa·s
viscosity (303.15 K, 101 kPa, x1 = 0.05): 1.921 ± 0.018 mPa·s
viscosity (303.15 K, 101 kPa, x1 = 0.07971): 2.95 ± 0.12 mPa·s and 2.92 ± 0.06 mPa·s
viscosity (303.15 K, 101 kPa, x1 = 0.08): 2.898 ± 0.021 mPa·s
viscosity (303.15 K, 101 kPa, x1 = 0.1003): 3.662 ± 0.027 mPa·s
viscosity (303.15 K, 101 kPa, x1 = 0.1187): 4.64 ± 0.1 mPa·s
viscosity (303.15 K, 101 kPa, x1 = 0.1419): 5.19 ± 0.21 mPa·s
viscosity (303.15 K, 101 kPa, x1 = 0.1993): 7.496 ± 0.047 mPa·s
viscosity (303.15 K, 101 kPa, x1 = 0.2947): 9.838 ± 0.062 mPa·s
viscosity (303.15 K, 101 kPa, x1 = 0.3489): 10.24 ± 0.066 mPa·s
viscosity (303.15 K, 101 kPa, x1 = 0.4004): 10.1 ± 0.066 mPa·s
viscosity (303.15 K, 101 kPa, x1 = 0.453): 9.546 ± 0.063 mPa·s
viscosity (303.15 K, 101 kPa, x1 = 0.504): 8.735 ± 0.058 mPa·s
viscosity (303.15 K, 101 kPa, x1 = 0.6047): 7.076 ± 0.048 mPa·s
viscosity (303.15 K, 101 kPa, x1 = 0.7044): 5.567 ± 0.038 mPa·s
viscosity (303.15 K, 101 kPa, x1 = 0.8062): 4.37 ± 0.03 mPa·s
viscosity (303.15 K, 101 kPa, x1 = 0.9046): 3.485 ± 0.025 mPa·s
viscosity (303.15 K, 101.3 kPa, x1 = 0.1001): 4 ± 0.04 mPa·s
viscosity (303.15 K, 101.3 kPa, x1 = 0.1999): 6.7 ± 0.06 mPa·s
viscosity (303.15 K, 101.3 kPa, x1 = 0.3): 8.53 ± 0.07 mPa·s
viscosity (303.15 K, 101.3 kPa, x1 = 0.4): 9.37 ± 0.08 mPa·s
viscosity (303.15 K, 101.3 kPa, x1 = 0.5): 9.3 ± 0.08 mPa·s
viscosity (303.15 K, 101.3 kPa, x1 = 0.6001): 8.61 ± 0.08 mPa·s
viscosity (303.15 K, 101.3 kPa, x1 = 0.6998): 7.1 ± 0.06 mPa·s
viscosity (303.15 K, 101.3 kPa, x1 = 0.8): 5.27 ± 0.05 mPa·s
viscosity (303.15 K, 101.3 kPa, x1 = 0.9001): 3.53 ± 0.04 mPa·s
viscosity (308.15 K, 101 kPa, x1 = 0.05): 1.657 ± 0.015 mPa·s
viscosity (308.15 K, 101 kPa, x1 = 0.08): 2.44 ± 0.02 mPa·s
viscosity (308.15 K, 101 kPa, x1 = 0.1003): 3.042 ± 0.023 mPa·s
viscosity (308.15 K, 101 kPa, x1 = 0.1993): 6.012 ± 0.044 mPa·s
viscosity (308.15 K, 101 kPa, x1 = 0.2947): 7.806 ± 0.056 mPa·s
viscosity (308.15 K, 101 kPa, x1 = 0.3489): 8.126 ± 0.058 mPa·s
viscosity (308.15 K, 101 kPa, x1 = 0.4004): 8.019 ± 0.057 mPa·s
viscosity (308.15 K, 101 kPa, x1 = 0.453): 7.626 ± 0.054 mPa·s
viscosity (308.15 K, 101 kPa, x1 = 0.504): 7.048 ± 0.05 mPa·s
viscosity (308.15 K, 101 kPa, x1 = 0.6047): 5.815 ± 0.041 mPa·s
viscosity (308.15 K, 101 kPa, x1 = 0.7044): 4.675 ± 0.033 mPa·s
viscosity (308.15 K, 101 kPa, x1 = 0.8062): 3.722 ± 0.026 mPa·s
viscosity (308.15 K, 101 kPa, x1 = 0.9046): 3.015 ± 0.022 mPa·s
viscosity (313.15 K, 101 kPa, x1 = 0.03444): 1.14 ± 0.05 mPa·s
viscosity (313.15 K, 101 kPa, x1 = 0.07971): 2.01 ± 0.04 mPa·s
viscosity (313.15 K, 101 kPa, x1 = 0.1003): 2.555 ± 0.02 mPa·s
viscosity (313.15 K, 101 kPa, x1 = 0.1187): 3.19 ± 0.07 mPa·s
viscosity (313.15 K, 101 kPa, x1 = 0.1993): 4.87 ± 0.035 mPa·s
viscosity (313.15 K, 101 kPa, x1 = 0.2947): 6.256 ± 0.045 mPa·s
viscosity (313.15 K, 101 kPa, x1 = 0.3489): 6.525 ± 0.046 mPa·s
viscosity (313.15 K, 101 kPa, x1 = 0.4004): 6.443 ± 0.046 mPa·s
viscosity (313.15 K, 101 kPa, x1 = 0.453): 6.189 ± 0.044 mPa·s
viscosity (313.15 K, 101 kPa, x1 = 0.504): 5.741 ± 0.041 mPa·s
viscosity (313.15 K, 101 kPa, x1 = 0.6047): 4.809 ± 0.034 mPa·s
viscosity (313.15 K, 101 kPa, x1 = 0.7044): 3.934 ± 0.028 mPa·s
viscosity (313.15 K, 101 kPa, x1 = 0.8062): 3.184 ± 0.023 mPa·s
viscosity (313.15 K, 101 kPa, x1 = 0.9046): 2.615 ± 0.019 mPa·s
viscosity (313.15 K, 101.3 kPa, x1 = 0.1001): 2.56 ± 0.03 mPa·s
viscosity (313.15 K, 101.3 kPa, x1 = 0.1999): 4.2 ± 0.04 mPa·s
viscosity (313.15 K, 101.3 kPa, x1 = 0.3): 5.23 ± 0.05 mPa·s
viscosity (313.15 K, 101.3 kPa, x1 = 0.4): 5.7 ± 0.05 mPa·s
viscosity (313.15 K, 101.3 kPa, x1 = 0.5): 5.61 ± 0.05 mPa·s
viscosity (313.15 K, 101.3 kPa, x1 = 0.6001): 5.08 ± 0.05 mPa·s
viscosity (313.15 K, 101.3 kPa, x1 = 0.6998): 4.26 ± 0.04 mPa·s
viscosity (313.15 K, 101.3 kPa, x1 = 0.9001): 2.4 ± 0.03 mPa·s
viscosity (318.15 K, 101 kPa, x1 = 0.05): 1.271 ± 0.013 mPa·s
viscosity (318.15 K, 101 kPa, x1 = 0.08): 1.791 ± 0.019 mPa·s
viscosity (318.15 K, 101 kPa, x1 = 0.1003): 2.183 ± 0.018 mPa·s
viscosity (318.15 K, 101 kPa, x1 = 0.1993): 4.018 ± 0.029 mPa·s
viscosity (318.15 K, 101 kPa, x1 = 0.2947): 5.104 ± 0.037 mPa·s
viscosity (318.15 K, 101 kPa, x1 = 0.3489): 5.309 ± 0.038 mPa·s
viscosity (318.15 K, 101 kPa, x1 = 0.4004): 5.268 ± 0.038 mPa·s
viscosity (318.15 K, 101 kPa, x1 = 0.453): 5.067 ± 0.036 mPa·s
viscosity (318.15 K, 101 kPa, x1 = 0.504): 4.741 ± 0.034 mPa·s
viscosity (318.15 K, 101 kPa, x1 = 0.6047): 4.041 ± 0.029 mPa·s
viscosity (318.15 K, 101 kPa, x1 = 0.7044): 3.341 ± 0.024 mPa·s
viscosity (318.15 K, 101 kPa, x1 = 0.8062): 2.756 ± 0.02 mPa·s
viscosity (318.15 K, 101 kPa, x1 = 0.9046): 2.293 ± 0.018 mPa·s
viscosity (323.15 K, 101 kPa, x1 = 0.03444): 0.91 ± 0.04 mPa·s
viscosity (323.15 K, 101 kPa, x1 = 0.07971): 1.56 ± 0.06 mPa·s and 1.51 ± 0.03 mPa·s
viscosity (323.15 K, 101 kPa, x1 = 0.08): 1.557 ± 0.018 mPa·s
viscosity (323.15 K, 101 kPa, x1 = 0.1187): 2.31 ± 0.05 mPa·s
viscosity (323.15 K, 101 kPa, x1 = 0.1419): 2.51 ± 0.1 mPa·s
viscosity (323.15 K, 101.3 kPa, x1 = 0.1999): 3.19 ± 0.03 mPa·s
viscosity (323.15 K, 101.3 kPa, x1 = 0.3): 3.69 ± 0.03 mPa·s
viscosity (323.15 K, 101.3 kPa, x1 = 0.4): 3.86 ± 0.04 mPa·s
viscosity (323.15 K, 101.3 kPa, x1 = 0.5): 3.65 ± 0.04 mPa·s
viscosity (323.15 K, 101.3 kPa, x1 = 0.6001): 3.16 ± 0.03 mPa·s
viscosity (323.15 K, 101.3 kPa, x1 = 0.6998): 2.64 ± 0.03 mPa·s
viscosity (323.15 K, 101.3 kPa, x1 = 0.8): 2.12 ± 0.03 mPa·s
viscosity (323.15 K, 101.3 kPa, x1 = 0.9001): 1.84 ± 0.03 mPa·s
